In patent US20220089600A1, “TGFß INHIBITOR AND PRODRUGS” (FUNDACIÓ INSTITUT DE RECERCA BIOMÈDICA (IRB BARCELONA), priority 2018, published 2022):

Experiments:
[1] = test system: TGFβ signaling (12×CAGA-Firefly_Luc reporter) in HEK293T cells; assay: In vitro CAGA-Luciferase reporter assay; assay type: cell-based; settings: Homo sapiens, HEK-293T, 5 ng/ml TGFB1, 16h, read-out: IC50, TGFβ signaling inhibition (CAGA-Luciferase)
Procedure: HEK293T cells were purchased from the ATCC and cultured in DMEM supplemented with L-glutamine and 10% fetal bovine serum (Life Technologies) at 37° C. and 5% CO2. The cells were seeded in 24-well plates and transfected with plasmids encoding 12×CAGA-Firefly_Luc and Tk-Renilla_Luc (75 and 10 ng per well, respectively), using polyethylenimine (Polysciences) as transfection reagent. After 7h, medium was replaced for starvation medium (DMEM+0.05% FBS). […] Luciferase activity was measured 16h later using the Dual Luciferase Assay kit (Promega): media were aspirated, and cells were lysed in 200 μl passive lysis buffer (kit) for 20 minutes. Bioluminescence was measured in a Berthold Lumat LB6507 luminometer (18 μl reagents, 10 seconds measurements). […]
When adding the luciferase substrate (luciferin) to the cell lysates, emission of light implies an active TGF-β pathway due to the production of pSMAD2/3-SMAD4, whereas no or little observed light would imply inhibition of the pathway by the inhibitor. Finally, the results could be normalized by the addition of Stop & Glo® which quenches the firefly luciferase enzyme/substrate and activates the Renilla transfection control, producing light which was again measured by the luminometer and used to normalize the data.

MTO129 liver metastases [2] = settings: Tauriello et al. Nature 2018 (10×); cited from earlier work
[3] = In vivo toxicity, histopathology; set-up: species or system mouse; settings: for Sternum side effect, mice affected per mice tested / Long bones side effect, mice affected per mice tested: two weeks
Description: Number of cured mice, i.e. mice with no metastases at experimental end points, were score. Intestines, skin samples, hearts, thoracic skeletons and limbs of these mice were fixed in 10% formalin, phosphate buffered (Sigma). Soft tissues were embedded in paraffin blocks, sectioned and stained with haematoxylin & eosin. Bones were first decalcified for 2 weeks before embedding, sectioning and staining. An experienced pathologist analyzed tissues for histopathological abnormalities. […] Furthermore, the cartilage ossification zone at the ends of the long bones was analysed for defects in the hypertrophic zone.

MTO129 liver metastases [4] = assay: Mouse liver metastasis initiation/formation assay with MTOs; assay type: in vivo; settings: for Efficacy (Cure rate): two weeks, mice with no metastases; for metastatic tumor growth inhibitory capacity (bioluminescence): day 3 until day 14
Description: Mouse tumor organoids (MTOs) are derived from compound transgenic mice (conditional mutations in Apc, Kras, Trp53 and Tgfbr2, as well as bearing Lgr5-EGFP/CreER^T2) of the C57BL6/J strain and cultured as described in Tauriello et al. 2018 Nature 554(7693): 538-543. doi: 10.1038/nature25492. Organoids are tumor epithelial cells grown in a 3D matrix where they adopt an organotypic architecture, typically as spheroids with a lumen. In this way, cells retain a relatively normal polarity (which means that the outside surface, inside/luminal surface and cell-cell contacts are individually specialized), which is more physiological than in conventional 2D cell culture.
In all experiments described in present invention MTO129 were used (Tauriello et al. Nature. 2018).
In patients, treatment doses were reduced to 80 to 150 mg b.i.d in a regime of 14 days on-14 days off.
MTOs expressing a luciferase reporter were measured by bioluminescence imaging, using retroorbital injection of 50 μl 15 mg/ml D-luciferin potassium salt (Resem BV). Photons per second from the region spanning thorax/abdomen were quantified and normalized to the measure at the day of injection.
Control mice were treated with 150 μl of vehicle.
In the experiment shown in FIG. 13, potency of the indicated compounds to inhibit metastasis formation was assessed. Mice were treatments with indicated compounds started two days after MTO129 transplantation and continued during two weeks. Mice were sacrificed at 4 weeks post transplantation and liver metastases (LiMs) were counted by eye on fixed livers.

LigF = target: T1, LigF (Sphingobium sp., UniProt P30347); assay: In vitro fluorescence assay with purified LigF; assay type: biochemical, Sphingobium sp. strain SYK-6; settings: 30 μM substrate, 15 μg/ml LigF, 1 mM glutathione, room temperature
T1 construct: made in house; host or cells: E. coli BL21 (DE3) Rosetta lysS
T1 sequence (P30347 1-257): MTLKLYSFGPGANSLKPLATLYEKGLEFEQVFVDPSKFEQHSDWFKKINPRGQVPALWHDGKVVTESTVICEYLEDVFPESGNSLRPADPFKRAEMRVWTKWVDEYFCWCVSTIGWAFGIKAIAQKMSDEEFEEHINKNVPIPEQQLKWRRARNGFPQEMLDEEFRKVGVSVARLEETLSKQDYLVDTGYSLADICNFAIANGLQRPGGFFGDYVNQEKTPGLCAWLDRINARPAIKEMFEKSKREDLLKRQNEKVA
Procedure: To test the enzymatic activity of LigF, pure LigF protein was expressed by the Protein Expression Core Facility within the IRB Barcelona by inserting the His-tagged LigF DNA into a pOPINF vector and expressed in E. coli BL21 (DE3) Rosetta IysS cells. After expression and lysis, the protein was purified by using a nickel column followed by gel filtration. Noteworthy, the His tags were not removed from the protein after purification.
For in vitro fluorescence assays, purified LigF was diluted to 15 μg/ml in 20 mM Tris-HCl (pH 7.5), 1 mM glutathione and 30 μM 4-methylumbelliferone acetovanillone (MUAV) model compound was added.
Reactions were performed in a 96-well solid polystyrene plate (Corning) and measured with a top-well plate reader (BioTek FL600 fluorometer) at 360 excitation, 485 emission and sensitivity 100.
Due to a rapid rate of production of 4-methylumbelliferone (4-MU) owing to the cleavage of the beta-ether bond of compound MUAV, the protocol described by Masai (E. Masai et al., J. Bacteriol. 2003, 185, 1768-75) was modified by lowering the LigF enzyme concentration. With this optimized protocol, compound MUAV was incubated at room temperature in the presence of a buffer, glutathione (GSH) and LigF, and followed the cleavage by observing the production of 4-MU by fluorescence. […] Enzyme LigF cleaved product MUAV in approximately 30-40 min (FIG. 6).

[5] = target: T2, LigF expressed in HEK293T cells (Sphingobium sp., UniProt P30347); assay: Fluorescence assay in HEK293T cells stably expressing LigF; assay type: cell-based
T2 construct: expressed in transfected cells; host or cells: HEK293T (lentiviral pLenti PGK puro)
Procedure: […]. At time points after addition of various concentrations of MUAV, namely 10, 30, and 100 μM, culture medium was taken for measurements of 4-MU fluorescence.

## Cc1cccc(-c2nn3c(c2-c2ccnc4ccc(C(N)=O)cc24)CCC3)n1 [Galunisertib, reference compound]
[1]
  IC50: 359 nM
MTO129 liver metastases [2]
  doses needed to effectively treat metastatic cancers: up to 1600 mg/kg/day
[3]; 1x dose
  Combined side effects per number tested: 0/5
  Toxicity (%): 0%
  Sternum side effect, mice affected per mice tested: 0/5
[3]; 1× doses
  pathological analysis of the skin and intestine: No pathological anomalies
[3]; 3x dose
  Combined side effects per number tested: 1/9
  Toxicity (%): 11%
  Long bones side effect, mice affected per mice tested: 0/5
  Sternum side effect, mice affected per mice tested: 1/4
[3]; 9x dose
  Combined side effects per number tested: 6/10
  Toxicity (%): 60%
  Long bones side effect, mice affected per mice tested: 2/3
  Sternum side effect, mice affected per mice tested: 4/7
[3]; 9× dose equivalent
  toxic dose (toxicity >50%): 1440 mg/kg/day
MTO129 liver metastases [4]; 1x dose
  Efficacy (Cure rate): 0%
MTO129 liver metastases [4]; 3x dose
  Efficacy (Cure rate): ~70%
MTO129 liver metastases [4]; 9x dose
  Efficacy (Cure rate): ~100%
MTO129 liver metastases [4]; 9× dose, as seen in FIG. 3
  metastatic tumor growth inhibitory capacity: highly effective
MTO129 liver metastases [4]; FIG. 4, 1× dose
  metastatic tumor growth inhibitory capacity (bioluminescence): not effective
MTO129 liver metastases [4]; FIG. 4, 3× dose
  metastatic tumor growth inhibitory capacity (bioluminescence): mostly effective
MTO129 liver metastases [4]; oral, divided b.i.d.
  effective dose (>50% efficacy): 480 mg/kg/day

## COc1cc(C(=O)COc2ccc3c(C)cc(=O)oc3c2)ccc1O [MUAV, 7-(2-(4-hydroxy-3-methoxyphenyl)-2-oxoethoxy)-4-methyl-2H-chromen-2-one]
LigF
  time for cleavage by LigF: 30 to 40 min
[5]; HEK293T expressing LigF, 10, 30, 100 μM
  cleavage of ether bond (4-MU fluorescence): dose-dependent increase in fluorescence
[5]; HEK293T with empty vector (no LigF), 100 μM
  cleavage of ether bond (4-MU fluorescence): No cleavage
